Measurements: US20260226092A1, “COCRYSTALS OF CORTEXOLONE 17-PROPIONATE AND METHODS FOR THEIR PREPARATION” (Farmabios S.p.A., priority 2023, published 2026)
Converted amounts (≈) assume the structure as drawn. Where two headings read alike, the source gives them in different places.

How the values were obtained:
[1] = Wettability analysis (contact angle, ultrapure water); assay type: physicochemical; details: room temperature
Experimental: Wettability analysis has been carried out by a contact angle meter (Kyowa Interface Science, made in Japan, model: DMe-211Plus) with FAMAS software for data processing.
The contact angle of cocrystals (Form J and G) and Form III (reference) was evaluated at room temperature using ultrapure water (by MilliQ system). Cocrystals (Form J and G) and Form III were previously grounded with a mortar and pestle to limit the effect of particle sizes. Then, approximately 27 mg of each sample were collected on a glass substrate limited to a Teflon O-ring (6.0 mm diameter) and gently leveled by a spatula. The contact time between the drop and sample was set at 9 s and the aqueous falling volume was 2.0 μl.

[2] = Kinetic solubility study in aqueous buffers (HPLC of mother liquors); assay type: physicochemical; details: for solubility at 30 min: aqueous buffer, thermodynamic from solid, read-out: highest solubility; for Conc 1st duplicate / Conc 2nd duplicate / Conc Average: room temperature
Experimental: Each sample was analyzed in duplicate. Cocrystals form J and G as well as the crystalline form III were previously grounded with mortar and pestle to reduce the particle size effects. […] At scheduled timing (0.5 h, 1 h, 3 h, 5 h, 24 h), aliquots of approximately 3 ml were withdrawn and filtered. Mother liquors were analyzed in triplicate by HPLC, and their pH values checked by pH me[…]/conductometer, Methron).

CCC(=O)O[C@]1(C(=O)CO)CC[C@H]2[C@@H]3CCC4=CC(=O)CC[C@]4(C)[C@H]3CC[C@@]21C [Form III, cortexolone 17α-propionate]
Wettability character (hydrophilic: contact angle <90 degrees; hydrophobic: >90 degrees) [1]: hydrophilic | Contact angle Sample 1 ([1]; 2.0 μl drop, contact time 9 s): 76.8 degrees | Contact angle Sample 2 ([1]; 2.0 μl drop, contact time 9 s): 75.0 degrees | Contact angle Sample 3 ([1]; 2.0 μl drop, contact time 9 s): 81.2 degrees | Contact angle Average ([1]; average of samples 1-3): 77.67 degrees | solubility at 30 min ([2]; acetate buffer, pH 5.1, room temperature, maximum over 0.5-24 h (Form J and G after 1 h, Form III after 30 min)): 18.07 ± 0.06 µg/mL (≈ 44.9 µM) | dissolution (in words) ([2]; pH 5.1, room temperature): faster than the one at pH 6.0 | Conc 1st duplicate ([2]; pH 5.1 buffer, 30 min): 18070 ng/mL | Conc 2nd duplicate ([2]; pH 5.1 buffer, 30 min): 18120 ng/mL | Conc Average ([2]; pH 5.1 buffer, 30 min): 18070 ng/mL | Conc 1st duplicate ([2]; pH 5.1 buffer, 1 h): 10020 ng/mL | Conc 2nd duplicate ([2]; pH 5.1 buffer, 1 h): 10000 ng/mL | Conc Average ([2]; pH 5.1 buffer, 1 h): 10010 ng/mL | Conc 1st duplicate ([2]; pH 5.1 buffer, 3 h): 16960 ng/mL | Conc 2nd duplicate ([2]; pH 5.1 buffer, 3 h): 16820 ng/mL | Conc Average ([2]; pH 5.1 buffer, 3 h): 16890 ng/mL | Conc 1st duplicate ([2]; pH 5.1 buffer, 5 h): 14680 ng/mL | Conc 2nd duplicate ([2]; pH 5.1 buffer, 5 h): 15020 ng/mL | Conc Average ([2]; pH 5.1 buffer, 5 h): 14770 ng/mL | Conc 1st duplicate ([2]; pH 5.1 buffer, 24 h): 2590 ng/mL | Conc 2nd duplicate ([2]; pH 5.1 buffer, 24 h): 2600 ng/mL | Conc Average ([2]; pH 5.1 buffer, 24 h): 2600 ng/mL | Conc 1st duplicate ([2]; pH 6.0 buffer, 30 min): 4380 ng/mL | Conc 2nd duplicate ([2]; pH 6.0 buffer, 30 min): 4370 ng/mL | Conc Average ([2]; pH 6.0 buffer, 30 min): 4380 ng/mL | Conc 1st duplicate ([2]; pH 6.0 buffer, 1 h): 3580 ng/mL | Conc 2nd duplicate ([2]; pH 6.0 buffer, 1 h): 3560 ng/mL | Conc Average ([2]; pH 6.0 buffer, 1 h): 3570 ng/mL | Conc 1st duplicate ([2]; pH 6.0 buffer, 3 h): 11150 ng/mL | Conc 2nd duplicate ([2]; pH 6.0 buffer, 3 h): 10970 ng/mL | Conc Average ([2]; pH 6.0 buffer, 3 h): 11060 ng/mL | Conc 1st duplicate ([2]; pH 6.0 buffer, 5 h): 1920 ng/mL | Conc 2nd duplicate ([2]; pH 6.0 buffer, 5 h): 1920 ng/mL | Conc Average ([2]; pH 6.0 buffer, 5 h): 1920 ng/mL | Conc 1st duplicate ([2]; pH 6.0 buffer, 24 h): 4020 ng/mL | Conc 2nd duplicate ([2]; pH 6.0 buffer, 24 h): 4030 ng/mL | Conc Average ([2]; pH 6.0 buffer, 24 h): 4020 ng/mL | solubility at 30 min ([2]; phosphate buffer, pH 6.0, room temperature, maximum over 0.5-24 h (Form J and Form III 30 min, Form G after 1 h)): 15.97 ± 0.04 µg/mL (≈ 39.7 µM)
